Data published in ChEMBL document CHEMBL4507261, “Data for DCP probe A-192621” (2021).

Experiments:
[1] = target: Casein kinase I isoform delta (Homo sapiens) (UniProt P48730); conditions: Compound concentration 1000.0 nM
[2] = target: D(1A) dopamine receptor (Homo sapiens) (UniProt P21728); test: D1 (h) Eurofins-Cerep binding assay; design: ligand concentration 0.3 nM; conditions: filed as antagonist, Compound concentration 10.0 uM
[3] = test system: Epidermal growth factor receptor (Homo sapiens), P00533 [G719S]; conditions: Compound concentration 1000.0 nM
[4] = target: Activin receptor type-2B (Homo sapiens) (UniProt Q13705); conditions: Compound concentration 1000.0 nM
[5] = target: Cyclin-dependent kinase 14 (Homo sapiens) (UniProt O94921); conditions: Compound concentration 1000.0 nM
[6] = target: Tyrosine-protein kinase FRK (Homo sapiens) (UniProt P42685); conditions: Compound concentration 1000.0 nM
[7] = target: Sodium- and chloride-dependent GABA transporter 1 (Rattus norvegicus) (UniProt P23978); test: GABA transporter Eurofins-Cerep binding assay; design: ligand concentration 10 nM; conditions: filed as antagonist, Compound concentration 10.0 uM
[8] = test system: Mast/stem cell growth factor receptor Kit (Homo sapiens), P10721 [V559D]; conditions: Compound concentration 1000.0 nM
[9] = target: Phosphatidylinositol 4,5-bisphosphate 3-kinase catalytic subunit delta isoform (Homo sapiens) (UniProt O00329); conditions: Compound concentration 1000.0 nM
[10] = target: Tyrosine-protein kinase Lck (Homo sapiens) (UniProt P06239); conditions: Compound concentration 1000.0 nM
[11] = target: Serine/threonine-protein kinase PAK 2 (Homo sapiens) (UniProt Q13177); conditions: Compound concentration 1000.0 nM
[12] = target: Tyrosine-protein kinase JAK3 (Homo sapiens) (UniProt P52333); conditions: Compound concentration 1000.0 nM
[13] = target: Mitogen-activated protein kinase kinase kinase 4 (Homo sapiens) (UniProt Q9Y6R4); conditions: Compound concentration 1000.0 nM
[14] = target: T1, Alpha-1A adrenergic receptor (Homo sapiens) (UniProt P35348); test: Alpha1A (h) Eurofins-Cerep binding assay; design: ligand concentration 0.1 nM; conditions: filed as antagonist, Compound concentration 10.0 uM
T1 sequence (whole entry): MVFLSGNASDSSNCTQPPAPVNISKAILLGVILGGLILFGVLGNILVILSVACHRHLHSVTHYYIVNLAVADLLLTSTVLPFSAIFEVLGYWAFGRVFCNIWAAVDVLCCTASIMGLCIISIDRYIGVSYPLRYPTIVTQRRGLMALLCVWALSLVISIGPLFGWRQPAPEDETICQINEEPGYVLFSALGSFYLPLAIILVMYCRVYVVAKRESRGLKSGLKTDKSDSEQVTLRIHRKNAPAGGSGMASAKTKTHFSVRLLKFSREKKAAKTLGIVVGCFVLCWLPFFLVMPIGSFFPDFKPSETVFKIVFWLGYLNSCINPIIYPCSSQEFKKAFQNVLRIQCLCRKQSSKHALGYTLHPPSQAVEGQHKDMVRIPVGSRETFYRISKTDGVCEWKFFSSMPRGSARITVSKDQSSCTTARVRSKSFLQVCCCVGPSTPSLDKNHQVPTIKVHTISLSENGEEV

[15] = target: 5-hydroxytryptamine receptor 1B (Homo sapiens) (UniProt P28222); test: 5-HT1B(h) Eurofins-Cerep binding assay; design: ligand concentration 1 nM; conditions: filed as antagonist, Compound concentration 10.0 uM
[16] = target: Tyrosine-protein kinase JAK2 (Homo sapiens) (UniProt O60674); conditions: Compound concentration 1000.0 nM
[17] = test system: Epidermal growth factor receptor (Homo sapiens), P00533 [UNDEFINED MUTATION]; conditions: Compound concentration 1000.0 nM
[18] = target: Receptor tyrosine-protein kinase erbB-3 (Homo sapiens) (UniProt P21860); conditions: Compound concentration 1000.0 nM
[19] = target: Dual specificity mitogen-activated protein kinase kinase 7 (Homo sapiens) (UniProt O14733); conditions: Compound concentration 1000.0 nM
[20] = target: Interleukin-1 receptor-associated kinase 4 (Homo sapiens) (UniProt Q9NWZ3); conditions: Compound concentration 1000.0 nM
[21] = target: Peripheral plasma membrane protein CASK (Homo sapiens) (UniProt O14936); conditions: Compound concentration 1000.0 nM
[22] = target: Serine/threonine-protein kinase 26 (Homo sapiens) (UniProt Q9P289); conditions: Compound concentration 1000.0 nM
[23] = target: SRSF protein kinase 3 (Homo sapiens) (UniProt Q9UPE1); conditions: Compound concentration 1000.0 nM
[24] = target: Serine/threonine-protein kinase 32C (Homo sapiens) (UniProt Q86UX6); conditions: Compound concentration 1000.0 nM
[25] = target: Serine/threonine-protein kinase VRK2 (Homo sapiens) (UniProt Q86Y07); conditions: Compound concentration 1000.0 nM
[26] = target: 5-hydroxytryptamine receptor 2A (Homo sapiens) (UniProt P28223); test: 5-HT2A (h) Eurofins-Cerep binding assay; design: ligand concentration 0.5 nM; conditions: filed as antagonist, Compound concentration 10.0 uM
[27] = target: Serine/threonine-protein kinase MARK1 (Homo sapiens) (UniProt Q9P0L2); conditions: Compound concentration 1000.0 nM
[28] = target: 3-phosphoinositide-dependent protein kinase 1 (Homo sapiens) (UniProt O15530); conditions: Compound concentration 1000.0 nM
[29] = target: Cyclin-dependent kinase 5 (Homo sapiens) (UniProt Q00535); conditions: Compound concentration 1000.0 nM
[30] = target: Mitotic checkpoint serine/threonine-protein kinase BUB1 (Homo sapiens) (UniProt O43683); conditions: Compound concentration 1000.0 nM
[31] = test system: Tyrosine-protein kinase ABL1 (Homo sapiens), P00519 [Q252H]; conditions: Compound concentration 1000.0 nM
[32] = target: Aurora kinase B (Homo sapiens) (UniProt Q96GD4); conditions: Compound concentration 1000.0 nM
[33] = target: Ephrin type-A receptor 3 (Homo sapiens) (UniProt P29320); conditions: Compound concentration 1000.0 nM
[34] = target: Serine/threonine-protein kinase Nek2 (Homo sapiens) (UniProt P51955); conditions: Compound concentration 1000.0 nM
[35] = target: Dual serine/threonine and tyrosine protein kinase (Homo sapiens) (UniProt Q6XUX3); conditions: Compound concentration 1000.0 nM
[36] = target: B2 bradykinin receptor (Homo sapiens) (UniProt P30411); test: B2 (h) Eurofins-Cerep binding assay; design: ligand concentration 0.3 nM; conditions: filed as agonist, Compound concentration 10.0 uM
[37] = target: Leukocyte tyrosine kinase receptor (Homo sapiens) (UniProt P29376); conditions: Compound concentration 1000.0 nM
[38] = target: Proto-oncogene tyrosine-protein kinase Src (Homo sapiens) (UniProt P12931); conditions: Compound concentration 1000.0 nM
[39] = target: Endothelin receptor type B (Homo sapiens) (UniProt P24530); test: ETB (h) Eurofins-Cerep binding assay; conditions: filed as agonist, Compound concentration 10.0 uM

Sequence of Serine/threonine-protein kinase 26 (Homo sapiens) (Q9P289 2-416 limits assumed): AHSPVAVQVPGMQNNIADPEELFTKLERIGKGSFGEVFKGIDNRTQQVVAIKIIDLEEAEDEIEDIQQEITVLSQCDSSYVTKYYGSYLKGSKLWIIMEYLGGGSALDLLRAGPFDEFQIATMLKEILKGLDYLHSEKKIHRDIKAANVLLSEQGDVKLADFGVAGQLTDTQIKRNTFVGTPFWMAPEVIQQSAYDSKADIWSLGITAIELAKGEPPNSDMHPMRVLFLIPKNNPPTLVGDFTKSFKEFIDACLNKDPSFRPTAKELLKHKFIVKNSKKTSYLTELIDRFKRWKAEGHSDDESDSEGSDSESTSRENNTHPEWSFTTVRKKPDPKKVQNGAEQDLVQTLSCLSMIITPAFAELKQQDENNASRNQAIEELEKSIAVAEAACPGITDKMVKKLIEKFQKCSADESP
Sequence of B2 bradykinin receptor (Homo sapiens) (P30411 whole entry): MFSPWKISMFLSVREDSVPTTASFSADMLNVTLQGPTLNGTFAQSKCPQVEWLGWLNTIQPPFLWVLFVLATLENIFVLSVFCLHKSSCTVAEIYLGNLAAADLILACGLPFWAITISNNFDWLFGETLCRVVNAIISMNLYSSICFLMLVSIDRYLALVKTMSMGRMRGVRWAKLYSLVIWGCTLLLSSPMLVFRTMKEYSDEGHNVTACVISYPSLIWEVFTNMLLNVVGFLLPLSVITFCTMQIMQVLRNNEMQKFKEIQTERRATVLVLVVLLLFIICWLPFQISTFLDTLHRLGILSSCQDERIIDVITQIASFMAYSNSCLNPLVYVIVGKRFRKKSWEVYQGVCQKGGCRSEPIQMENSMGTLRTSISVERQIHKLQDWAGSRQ
Sequence of Cyclin-dependent kinase 14 (Homo sapiens) (O94921 whole entry): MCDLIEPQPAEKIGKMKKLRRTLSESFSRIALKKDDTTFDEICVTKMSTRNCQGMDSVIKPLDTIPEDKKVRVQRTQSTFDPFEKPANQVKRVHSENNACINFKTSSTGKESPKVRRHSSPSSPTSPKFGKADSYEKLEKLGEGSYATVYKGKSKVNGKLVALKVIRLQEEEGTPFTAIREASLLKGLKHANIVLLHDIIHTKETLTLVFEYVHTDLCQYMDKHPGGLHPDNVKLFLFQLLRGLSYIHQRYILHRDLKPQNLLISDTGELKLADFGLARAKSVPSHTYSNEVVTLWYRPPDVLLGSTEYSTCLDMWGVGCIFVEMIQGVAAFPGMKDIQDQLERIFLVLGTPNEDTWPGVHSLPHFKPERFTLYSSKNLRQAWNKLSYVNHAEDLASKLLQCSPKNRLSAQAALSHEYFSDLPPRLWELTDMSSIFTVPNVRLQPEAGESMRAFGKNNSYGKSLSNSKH
Sequence of Interleukin-1 receptor-associated kinase 4 (Homo sapiens) (Q9NWZ3 whole entry): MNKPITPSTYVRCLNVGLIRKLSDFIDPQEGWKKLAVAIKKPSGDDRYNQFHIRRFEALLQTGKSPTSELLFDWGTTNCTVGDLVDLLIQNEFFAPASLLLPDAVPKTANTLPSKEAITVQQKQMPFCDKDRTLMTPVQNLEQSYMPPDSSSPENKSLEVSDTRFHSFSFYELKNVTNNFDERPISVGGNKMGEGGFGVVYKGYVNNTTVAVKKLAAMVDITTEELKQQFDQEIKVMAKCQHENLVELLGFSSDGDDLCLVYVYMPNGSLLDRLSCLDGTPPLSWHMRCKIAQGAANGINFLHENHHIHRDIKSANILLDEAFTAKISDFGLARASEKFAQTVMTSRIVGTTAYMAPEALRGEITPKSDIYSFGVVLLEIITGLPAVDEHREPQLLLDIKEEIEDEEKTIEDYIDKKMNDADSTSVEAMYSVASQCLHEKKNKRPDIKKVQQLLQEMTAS
Sequence of Ephrin type-A receptor 3 (Homo sapiens) (P29320 whole entry): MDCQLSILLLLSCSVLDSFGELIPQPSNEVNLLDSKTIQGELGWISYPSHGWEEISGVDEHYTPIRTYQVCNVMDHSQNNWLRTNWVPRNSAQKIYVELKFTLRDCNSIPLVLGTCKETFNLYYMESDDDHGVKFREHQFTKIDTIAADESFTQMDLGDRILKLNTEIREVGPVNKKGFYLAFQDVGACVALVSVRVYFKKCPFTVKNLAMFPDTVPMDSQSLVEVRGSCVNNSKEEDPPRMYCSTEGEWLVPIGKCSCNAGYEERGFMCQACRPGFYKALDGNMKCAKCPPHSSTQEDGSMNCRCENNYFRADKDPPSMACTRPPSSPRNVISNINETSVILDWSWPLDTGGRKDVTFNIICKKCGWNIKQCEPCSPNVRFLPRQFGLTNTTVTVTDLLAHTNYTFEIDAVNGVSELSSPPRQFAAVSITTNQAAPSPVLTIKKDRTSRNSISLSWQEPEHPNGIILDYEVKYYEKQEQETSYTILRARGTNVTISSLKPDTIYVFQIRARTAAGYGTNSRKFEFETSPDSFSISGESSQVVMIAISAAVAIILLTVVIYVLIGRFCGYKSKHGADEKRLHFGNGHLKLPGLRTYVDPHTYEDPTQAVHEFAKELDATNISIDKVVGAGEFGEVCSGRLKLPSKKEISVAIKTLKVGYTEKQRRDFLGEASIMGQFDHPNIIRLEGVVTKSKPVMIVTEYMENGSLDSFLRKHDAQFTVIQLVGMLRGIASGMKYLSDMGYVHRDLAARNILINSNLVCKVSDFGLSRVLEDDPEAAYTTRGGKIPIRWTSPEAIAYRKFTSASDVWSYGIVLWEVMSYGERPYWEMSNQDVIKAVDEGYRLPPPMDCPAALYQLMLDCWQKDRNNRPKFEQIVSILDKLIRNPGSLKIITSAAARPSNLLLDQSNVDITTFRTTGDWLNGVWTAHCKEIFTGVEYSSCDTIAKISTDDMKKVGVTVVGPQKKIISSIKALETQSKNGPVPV
Sequence of Mitogen-activated protein kinase kinase kinase 4 (Homo sapiens) (Q9Y6R4 whole entry): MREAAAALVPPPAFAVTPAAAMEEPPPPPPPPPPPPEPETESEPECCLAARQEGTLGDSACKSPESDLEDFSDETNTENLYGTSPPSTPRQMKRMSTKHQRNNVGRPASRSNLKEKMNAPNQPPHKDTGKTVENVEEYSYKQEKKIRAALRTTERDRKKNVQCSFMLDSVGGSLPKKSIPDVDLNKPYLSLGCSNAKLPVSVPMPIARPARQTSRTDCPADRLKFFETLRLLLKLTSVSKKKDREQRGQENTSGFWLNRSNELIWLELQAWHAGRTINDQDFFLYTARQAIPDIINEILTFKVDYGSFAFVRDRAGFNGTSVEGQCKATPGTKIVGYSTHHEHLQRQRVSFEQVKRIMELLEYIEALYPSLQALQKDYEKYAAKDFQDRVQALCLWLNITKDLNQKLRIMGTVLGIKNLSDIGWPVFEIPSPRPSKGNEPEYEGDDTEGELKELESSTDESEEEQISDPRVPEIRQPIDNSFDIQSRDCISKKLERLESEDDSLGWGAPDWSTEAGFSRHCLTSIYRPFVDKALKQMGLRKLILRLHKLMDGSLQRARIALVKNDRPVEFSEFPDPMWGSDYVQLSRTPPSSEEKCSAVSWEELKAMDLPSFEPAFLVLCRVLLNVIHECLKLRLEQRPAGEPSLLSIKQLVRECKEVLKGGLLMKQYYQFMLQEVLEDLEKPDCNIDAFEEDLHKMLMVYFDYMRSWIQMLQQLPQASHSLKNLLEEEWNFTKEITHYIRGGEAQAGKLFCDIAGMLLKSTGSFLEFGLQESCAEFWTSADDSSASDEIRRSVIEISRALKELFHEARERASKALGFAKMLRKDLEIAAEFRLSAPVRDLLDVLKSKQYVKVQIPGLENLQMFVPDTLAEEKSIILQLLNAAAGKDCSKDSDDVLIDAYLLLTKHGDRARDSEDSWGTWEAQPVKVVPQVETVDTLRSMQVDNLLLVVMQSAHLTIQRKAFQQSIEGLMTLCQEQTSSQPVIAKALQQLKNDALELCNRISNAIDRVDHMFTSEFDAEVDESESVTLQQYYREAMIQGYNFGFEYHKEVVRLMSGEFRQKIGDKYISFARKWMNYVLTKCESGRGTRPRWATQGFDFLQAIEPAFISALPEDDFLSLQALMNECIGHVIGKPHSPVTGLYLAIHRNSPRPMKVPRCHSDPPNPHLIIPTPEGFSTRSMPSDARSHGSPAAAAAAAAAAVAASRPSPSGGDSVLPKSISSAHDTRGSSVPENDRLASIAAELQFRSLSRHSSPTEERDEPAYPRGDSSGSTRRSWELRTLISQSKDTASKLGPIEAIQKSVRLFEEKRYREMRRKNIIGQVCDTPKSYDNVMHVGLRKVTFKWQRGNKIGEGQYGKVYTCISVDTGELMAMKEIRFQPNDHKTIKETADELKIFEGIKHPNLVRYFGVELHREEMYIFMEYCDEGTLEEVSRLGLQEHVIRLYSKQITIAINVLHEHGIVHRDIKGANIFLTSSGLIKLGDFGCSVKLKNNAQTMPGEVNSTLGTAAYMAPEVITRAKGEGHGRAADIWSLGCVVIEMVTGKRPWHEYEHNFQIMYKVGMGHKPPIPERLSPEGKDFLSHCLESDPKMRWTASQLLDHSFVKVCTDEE
Sequence of Tyrosine-protein kinase FRK (Homo sapiens) (P42685 whole entry): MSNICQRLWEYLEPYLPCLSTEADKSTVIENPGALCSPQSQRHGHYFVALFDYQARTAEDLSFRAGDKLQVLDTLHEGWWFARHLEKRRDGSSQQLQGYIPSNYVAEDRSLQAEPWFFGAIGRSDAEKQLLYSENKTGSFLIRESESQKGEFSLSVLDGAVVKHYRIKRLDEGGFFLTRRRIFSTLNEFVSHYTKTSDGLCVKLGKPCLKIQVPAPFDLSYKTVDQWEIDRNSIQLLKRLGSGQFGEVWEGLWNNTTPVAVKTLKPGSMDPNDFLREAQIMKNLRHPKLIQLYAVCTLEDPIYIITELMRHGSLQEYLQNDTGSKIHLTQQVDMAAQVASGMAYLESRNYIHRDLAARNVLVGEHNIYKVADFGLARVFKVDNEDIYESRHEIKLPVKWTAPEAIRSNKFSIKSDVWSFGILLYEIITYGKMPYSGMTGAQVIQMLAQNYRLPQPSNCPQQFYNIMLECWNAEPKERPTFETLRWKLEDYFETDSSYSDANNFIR

Row | Structure (SMILES) | residual activity [1] [%] | % Inhibition of Control Specific Binding (Mean n=2) [2] [%] | residual activity [3] [%] | residual activity [4] [%] | residual activity [5] [%] | residual activity [6] [%] | % Inhibition of Control Specific Binding (Mean n=2) [7] [%] | residual activity [8] [%] | residual activity [9] [%] | residual activity [10] [%] | residual activity [11] [%] | residual activity [12] [%] | residual activity [13] [%] | % Inhibition of Control Specific Binding (Mean n=2) [14] [%] | % Inhibition of Control Specific Binding (Mean n=2) [15] [%] | residual activity [16] [%] | residual activity [17] [%] | residual activity [18] [%] | residual activity [19] [%] | residual activity [20] [%] | also measured
1 | CCCOc1ccc([C@H]2[C@H](C(=O)O)[C@@H](c3ccc4c(c3)OCO4)CN2CC(=O)Nc2c(CC)cccc2CC)cc1 [A-192621] | 80 | -2.2 | 89 | 93 | 100 | 100 | -12 | 87 | 75 | 100 | 94 | 84 | 88 | 5 | 12.3 | 53 | 89 | 78 | 74 | 76 | residual activity [21]: 77%; residual activity [22]: 74%; residual activity [23]: 100%; residual activity [24]: 100%; residual activity [25]: 61%; % Inhibition of Control Specific Binding (Mean n=2) [26]: 5.5%; residual activity [27]: 100%; residual activity [28]: 100%; residual activity [29]: 100%; residual activity [30]: 98%; residual activity [31]: 86%; residual activity [32]: 72%; residual activity [33]: 86%; residual activity [34]: 90%; residual activity [35]: 73%; % Inhibition of Control Specific Binding (Mean n=2) [36]: -8.6%; residual activity [37]: 100%; residual activity [38]: 99%; % Inhibition of Control Specific Binding (Mean n=2) [39]: 94.7%
2 | CCCOc1ccc([C@@H]2[C@@H](C(=O)O)[C@H](c3ccc4c(c3)OCO4)CN2CC(=O)Nc2c(CC)cccc2CC)cc1 [A-1806262] | 83 | -0.2 | 100 | 96 | 92 | 89 | -17.3 | 93 | 90 | 100 | 100 | 73 | 99 | 3.7 | 13.4 | 79 | 66 | 84 | 91 | 100 | residual activity [21]: 89%; residual activity [22]: 81%; residual activity [23]: 93%; residual activity [24]: 100%; residual activity [25]: 59%; % Inhibition of Control Specific Binding (Mean n=2) [26]: -2.9%; residual activity [27]: 100%; residual activity [28]: 100%; residual activity [29]: 100%; residual activity [30]: 92%; residual activity [31]: 99%; residual activity [32]: 77%; residual activity [33]: 99%; residual activity [34]: 97%; residual activity [35]: 82%; % Inhibition of Control Specific Binding (Mean n=2) [36]: -12.3%; residual activity [37]: 100%; residual activity [38]: 100%; % Inhibition of Control Specific Binding (Mean n=2) [39]: 96.7%
